Experiments:
CA-II = target: T1, CA-II (Homo sapiens, UniProt P00918); test: Inhibition of carbonic anhydrase II (4-nitrophenyl acetate hydrolysis, spectrophotometric at 400 nm); assay type: biochemical; details: purified human enzyme 30 nM; 9 mM Tris-HCl, 81 mM NaCl, pH 7.4, 25° C.; 10 min preincubation
T1 construct: purchased R&D Systems
Description: (§1) Compounds were tested for their ability to inhibit carbonic anhydrase isozymes II and IX in vitro. Purified human enzymes were from R&D Systems (Minneapolis, Minn.). The inhibition constants (Ki) for CA-II and CA-IX were determined by the method of Pocker and Stone. Initial rates of 4-nitrophenyl acetate hydrolysis catalyzed by the different carbonic anhydrase isozymes were measured spectrophotometrically at 400 nm. Solutions of substrate (1×10^−2 to 1×10^−6 M) were prepared in anhydrous acetonitrile. A molar extinction coefficient of 18,000 M^−1·cm^−1 was used for the 4-nitrophenolate formed by hydrolysis under the conditions of the experiment (9 mM Tris-HCl, 81 mM NaCl, pH 7.4, 25° C.). The enzyme concentrations were 100 nM for CA-IX and 30 nM for CA-II. Non-enzymatic hydrolysis rates, determined in the absence of added enzyme, were subtracted from the observed rates. […] Dilutions of inhibitor were added to enzyme solutions and preincubated for 10 min to allow for the formation of the E-I complex prior to the addition of substrate. Acetazolamide was included in all assays as positive controls

CA-IX = target: T2, CA-IX (Homo sapiens, UniProt Q16790); test: Inhibition of carbonic anhydrase IX (4-nitrophenyl acetate hydrolysis, spectrophotometric at 400 nm); assay type: biochemical; details: purified human enzyme 100 nM; 9 mM Tris-HCl, 81 mM NaCl, pH 7.4, 25° C.; 10 min preincubation
T2 construct: purchased R&D Systems
Description: as §1

Q: With `NS(=O)(=O)c1ccc(NC(=S)N[C@@H](CC(=O)O)C(=O)N[C@@H](CC(=O)O)C(=O)NCc2ccc(I)cc2)cc1` [Comparative Example 1] as the compound, how does the IC50 (CA-II) read?
A: Its IC50 is 377 nM.

Q: And the IC50 (CA-IX)?
A: The IC50 was 77 nM.

From US8211402B2, “CA-IX specific radiopharmaceuticals for the treatment and imaging of cancer” (Molecular Insight Pharmaceuticals, Inc., priority 2008, dated 2012)
